Assay results published in US7135556B2, “NPC1L1 (NPC3) and methods of use thereof” (Schering Corporation, priority 2002, dated 2006).

Columns and labels:
SR-B1 = target: T1, SR-B1 (Mus musculus, UniProt Q61009); assay: Cholesterol uptake assay (Example 4), [3H]-cholesterol, CHO cells expressing SR-B1; assay type: cell-based; settings: 10 μM ezetimibe
T1 construct: expressed in transfected cells; host or cells: CHO cells
T1 sequence (Q61009 1-509): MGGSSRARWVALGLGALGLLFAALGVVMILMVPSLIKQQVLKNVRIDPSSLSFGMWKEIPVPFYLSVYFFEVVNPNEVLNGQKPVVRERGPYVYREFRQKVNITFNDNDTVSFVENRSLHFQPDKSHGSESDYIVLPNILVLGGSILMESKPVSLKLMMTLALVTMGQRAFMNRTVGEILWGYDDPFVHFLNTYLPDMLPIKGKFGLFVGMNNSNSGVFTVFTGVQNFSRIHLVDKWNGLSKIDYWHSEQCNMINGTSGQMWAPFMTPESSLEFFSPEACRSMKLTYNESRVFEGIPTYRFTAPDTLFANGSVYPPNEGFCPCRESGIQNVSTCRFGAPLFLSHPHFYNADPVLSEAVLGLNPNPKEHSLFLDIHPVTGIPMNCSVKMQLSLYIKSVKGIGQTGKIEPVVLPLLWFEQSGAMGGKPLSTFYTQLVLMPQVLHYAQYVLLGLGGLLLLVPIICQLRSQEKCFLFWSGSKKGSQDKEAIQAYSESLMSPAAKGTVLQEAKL
From the text: The cells were harvested and the lipids were organically extracted. The extracted lipids were spotted on thin-layer chromatography (TLC) plates and resolved within an organic vapor phase. The free cholesterol bands for each assay were isolated and counted in a scintillation counter.

cholesterol absorption = assay: Cholesterol absorption in mice, dual fecal isotope ratio method (cholesterol/sitostanol) (Example 24); assay type: in vivo, mouse; settings: chow diet
Protocol: Cholesterol absorption in the mice was determined by the dual fecal isotope ratio method as described by Altmann et al. (Biochim. Biophys. Acta. 1580(1):77–93 (2002)). […] Mice were gavaged with ^14C-cholesterol (1 μCi, 0.1 mg unlabeled cholesterol) and ^3H-sitostanol (2 μCi) in 0.1 ml corn oil. Feces were collected for 2 days and fecal ^14C-cholesterol and ^3H-sitostanol levels were determined by combustion in a Packard Oxidizer. The fraction of cholesterol absorbed, as evaluated by the fecal dual isotope technique, was similar in wild type (+/+) and heterozygous mice (+/−) fed a chow diet (heterozygous mice absorbed 46±5% and age matched wild type mice absorbed 51±3% of the dose of ^14C-cholesterol).

rat NPC1L1 = target: T2, rat NPC1L1 (Rattus norvegicus, UniProt Q6T3U3); assay: FACS analysis of BODIPY-labeled ezetimibe binding, rNPC1L1/CHO; settings: 100 nM BODIPY-labeled ezetimibe
T2 construct: using clone specific PCR primers to generate the ORF flanked by appropriate restriction sites; expressed in transfected cells
Protocol: (§1) “BODIPY” is a fluorescent group which was used to detect the BODIPY-ezetimibe. Chinese hamster ovary (CHO) cells were transiently transfected with rat NPC1L1 DNA (rNPC1L1/CHO), mouse NPC1L1 DNA (mNPC1L1/CHO), mouse SR-B1 DNA (mSRBI/CHO) or EGFP DNA (EGFP/CHO). EGFP is enhanced green fluorescent protein which was used as a positive control. […] Control experiments were also performed wherein the cells were not labeled with the BODIPY-ezetimibe and wherein untransfected CHO cells were labeled with the BODIPY-ezetimibe.

untransfected CHO cells = assay: FACS analysis of BODIPY-labeled ezetimibe binding, untransfected CHO cells; set-up: species or system chinese hamster; settings: 100 nM BODIPY-labeled ezetimibe
Protocol: as §1

mouse SR-B1 = target: T3, mouse SR-B1 (Mus musculus, UniProt Q61009); assay: FACS analysis of BODIPY-labeled ezetimibe binding, mSRBI/CHO; settings: 100 nM BODIPY-labeled ezetimibe
T3 construct: expressed in transfected cells
T3 sequence (Q61009 1-509): T1 sequence (Q61009 1-509)
Protocol: as §1

mouse NPC1L1 = target: T4, mouse NPC1L1 (Mus musculus, UniProt Q6T3U4); assay: FACS analysis of BODIPY-labeled ezetimibe binding, mNPC1L1/CHO; settings: 100 nM BODIPY-labeled ezetimibe
T4 construct: using clone specific PCR primers to generate the ORF flanked by appropriate restriction sites; expressed in transfected cells
Protocol: as §1

| Compound | [3H]-cholesterol uptake (SR-B1) | fraction of cholesterol absorbed (of the dose of 14C-cholesterol) (cholesterol absorption; NPC1L1 knockout mice (−/−), ezetimibe 10 mg/kg/day) [%] | fraction of cholesterol absorbed (of the dose of 14C-cholesterol) (cholesterol absorption; wild type mice, ezetimibe 10 mg/kg daily) [%] | staining of cells (FACS) (rat NPC1L1) | staining of cells (FACS) (untransfected CHO cells) | staining of cells (FACS) (mouse SR-B1) | staining of cells (FACS) (mouse NPC1L1) |
| --- | --- | --- | --- | --- | --- | --- | --- |
| O=C1[C@H](CC[C@H](O)c2ccc(F)cc2)[C@@H](c2ccc(O)cc2)N1c1ccc(F)cc1 [ezetimibe] | inhibited | 16.2±0.6 | 16.1±0.3 |  |  |  |  |
| N-(4,4-difluoro-5.7-dimethyl-4-bora-3a.4a-diaza-s-indacene-3-vl)methyl iodoacetamide/ezetimibe [BODIPY-ezetimibe] |  |  |  | No staining | No staining | detected | No staining |
